Experimental data reported in patent publication US20240189316A1, “DEUTERATED ANALOGS OF ETIFOXINE AND METHODS OF ADMINISTRATION WITHOUT AUTOINDUCTION OF METABOLISM” (Gaba Therapeutics Inc., priority 2022, published 2024).

Legend:
[1] = Phase 1 multiple-ascending dose study, plasma pharmacokinetics in healthy subjects; format: in vivo, human; set-up: Geometric mean trough concentration: unit not given here
Method: The first dose of study drug was given on Day 1. On Days 1 through 6, subjects subsequently received two (q12h) oral doses of study drug each day. A final single dose of study drug was given on Day 7. Each dose of study drug was given with a 240 mL glass of water at the end of ingestion of a standard meal. The meal was provided 30 minutes before dosing and was completed within 30 minutes or less. On Day 1 and Day 7, subjects were required to fast for 8 hours before the morning meal dose and for 2 hours post dose (water was freely available during this time).

[2] = Stability in rat liver microsomes; format: in vitro ADME; conditions: for half-life: read-out: T½
[3] = Stability in human liver microsomes; format: in vitro ADME; conditions: for half-life: read-out: T½
[4] = Stability in mouse liver microsomes; format: in vitro ADME; conditions: for half-life: read-out: T½
[5] = Plasma concentration-time profile following 50 mg/kg GRX-917 and etifoxine in rats (FIG. 1); format: in vivo, rat
[6] = cited from earlier work

Question: Which results are given for `[2H]C([2H])([2H])C([2H])([2H])NC1=Nc2ccc(Cl)cc2C(C)(c2ccccc2)O1` (racemic) [Deuterated Etifoxine, 6-chloro-N-(ethyl-d5)-4-methyl-4-phenyl-4H-3,1-benzoxazin-2-amine]?
Answer: Induction of metabolism ([1]; 100 mg bid): did not induce metabolism; Geometric mean trough concentration ([1]; 100 mg q12 h, Day 1): 11.6; Geometric mean trough concentration ([1]; 100 mg q12 h, Day 2): 36.1; Geometric mean trough concentration ([1]; 100 mg q12 h, Day 4): 39.3; Geometric mean trough concentration ([1]; 100 mg q12 h, Day 5): 31.9; Geometric mean trough concentration ([1]; 100 mg q12 h, Day 6): 34.0; Geometric mean trough concentration ([1]; 100 mg q12 h, Day 7 (12-hr post-dose)): 27.1; Geometric mean trough concentration ([1]; 100 mg q12 h, Day 7 (pre-dose)): 27.7; Induction of metabolism ([1]; 150 mg bid (twice daily)): induces metabolism; Geometric mean trough concentration ([1]; 150 mg q12 h, Day 1): 28.1; Geometric mean trough concentration ([1]; 150 mg q12 h, Day 2): 43.8; Geometric mean trough concentration ([1]; 150 mg q12 h, Day 4): 44.5; Geometric mean trough concentration ([1]; 150 mg q12 h, Day 5): 39.2; Geometric mean trough concentration ([1]; 150 mg q12 h, Day 6): 37.7; Geometric mean trough concentration ([1]; 150 mg q12 h, Day 7 (12-hr post-dose)): 31.4; Geometric mean trough concentration ([1]; 150 mg q12 h, Day 7 (pre-dose)): 33.3; Geometric mean trough concentration ([1]; 200 mg q12 h, Day 1): 42.8; Geometric mean trough concentration ([1]; 200 mg q12 h, Day 2): 72.3; Geometric mean trough concentration ([1]; 200 mg q12 h, Day 4): 67.2; Geometric mean trough concentration ([1]; 200 mg q12 h, Day 5): 62.4; Geometric mean trough concentration ([1]; 200 mg q12 h, Day 6): 53.7; Geometric mean trough concentration ([1]; 200 mg q12 h, Day 7 (12-hr post-dose)): 51.4; Geometric mean trough concentration ([1]; 200 mg q12 h, Day 7 (pre-dose)): 58.9; Geometric mean trough concentration ([1]; 300 mg q12 h, Day 1): 54.9; Geometric mean trough concentration ([1]; 300 mg q12 h, Day 2): 87.4; Geometric mean trough concentration ([1]; 300 mg q12 h, Day 4): 71.0; Geometric mean trough concentration ([1]; 300 mg q12 h, Day 5): 70.0; Geometric mean trough concentration ([1]; 300 mg q12 h, Day 6): 66.3; Geometric mean trough concentration ([1]; 300 mg q12 h, Day 7 (12-hr post-dose)): 60.4; Geometric mean trough concentration ([1]; 300 mg q12 h, Day 7 (pre-dose)): 63.0; Tmax dependence on dose ([1]; Day 7, statistical analysis): independent of dose; half-life ([1]; both sexes, human, plasma, oral, Day 7, read-out: Geometric mean t1/2): 38.8 to 82.1 h; Tmax ([1]; both sexes, human, plasma, single and multiple oral doses of 100-300 mg q12h, post-dose, read-out: Median Tmax): 120 to 211 min; Fraction of dose excreted as deuterated etifoxine ([1]; renal elimination): < 0.004%; microsomal CLint [2]: 503 µL/min/mg; half-life [2]: 14 min; microsomal CLint [3]: 170 µL/min/mg; half-life [3]: 41 min; microsomal CLint [4]: 464 µL/min/mg; half-life [4]: 15 min; AUC as compared to etifoxine [5]: approximately 3 fold

Question: With `CCNC1=Nc2ccc(Cl)cc2C(C)(c2ccccc2)O1` (stereo not shown) [Etifoxine, 6-chloro-2-(ethylamino)-4-methyl-4-phenyl-4H-3,1-benzoxazine] as the compound, how does the “Auto-induction of CYP enzyme(s) on continued dosing” value ([6]; continued dosing over time) read?
Answer: exhibits an auto-induction effect

Question: And the Half-life in humans ([6]; humans)?
Answer: 240 to 360 min

Question: And the microsomal CLint [2]?
Answer: 915 µL/min/mg

Question: What about the half-life [2] of the same compound?
Answer: 8 min

Question: And the microsomal CLint [3]?
Answer: 309 µL/min/mg

Question: What about the half-life [3] of the same compound?
Answer: 22 min

Question: And the microsomal CLint [4]?
Answer: 657 µL/min/mg

Question: What about the half-life [4] of the same compound?
Answer: 11 min
